Experiments:
[1] = test system: Calu-6 lung cancer model (KRAS Q61K); assay: In vivo tumor efficacy, KRAS mutated Calu-6 human lung carcinoma model; parameters: species or system Mouse (Mus musculus) Athymic Balb/c Nude; settings: for TGI: Day 21
[2] = Body weight loss in the Calu-6 xenograft study; assay type: in vivo, Mouse (Mus musculus) Athymic Balb/c Nude
Procedure: Each animal was inoculated with 2×10^6 Calu-6 tumor cells (in 0.1 mL, 1:1 with Matrigel) at the right flank for tumor model development. Body weight and the tumor growth were monitored twice weekly. Tumor size was measured to the nearest 0.1 mm using vernier caliper and applying the formula V=W^2×L/2, where V=volume, W=width, and L=length for the tumor xenograft. Xenografts were allowed to grow until they reached an average size of approximately 220 mm^3 after 14 days.
Tumor size and body weight were measured twice weekly beginning on the day of animal grouping. The study was terminated on Day 35 post treatment initiation.

[3] = test system: tumor cells with N-Ras mutation and K-Ras mutation, B-Raf wild type genetic background; assay: Activity against tumor cells with MAPK pathway activation by upstream signaling; assay type: cell-based
[4] = Body weight loss in the SK-MEL-2 xenograft study; assay type: in vivo, Mouse (Mus musculus) Athymic NCr-nu/nu
Procedure: Tumor size and body weight were measured BIW beginning on the first day of treatment. Animals were terminated when their tumor reached approximately 2000 mm^3, and the study was terminated on Day 62 post treatment initiation.

[5] = test system: N-Ras mutated SK-MEL-2 human melanoma xenograft; assay: In vivo tumor efficacy, N-Ras mutated SK-MEL-2 human melanoma xenograft model; parameters: species or system Mouse (Mus musculus) Athymic NCr-nu/nu; settings: Day 20
[6] = test system: melanoma tumor cells which developed resistance to vemurafenib; assay: Activity against vemurafenib-resistant melanoma tumor cells; assay type: cell-based
[7] = Compound A 12.5 mg/kg PO QD Days 1-21

SMILES	ΔAUC [1, 7]	TGI [1, 7]	ΔAUC ([1]; Compound A 50 mg/kg PO BIW)	TGI ([1]; Compound A 50 mg/kg PO BIW)	Mean Maximum % BWL ([2]; Compound A 12.5 mg/kg PO QD, Day 0 to Day 21)	Mean Maximum % BWL ([2]; Compound A 50 mg/kg PO BIW, Day 7)	activity against tumor cells [3]	Mean Maximum BWL ([4]; Compound A 12.5 mg/kg PO QD Days 0-20, Days 3 and 10)	Mean Maximum BWL ([4]; Compound A 50 mg/kg PO BIW, Day 17)	TGI ([5]; Compound A 50 mg/kg PO BIW)	activity against tumor cells [6]	ΔAUC ([1]; docetaxel 5 mg/kg IV QW)	TGI ([1]; docetaxel 5 mg/kg IV QW)	ΔAUC ([1]; docetaxel 7.5 mg/kg IV QW)	TGI ([1]; docetaxel 7.5 mg/kg IV QW)	Mean Maximum % BWL ([2]; docetaxel 5 mg/kg IV QW, Day 0 to Day 21)	Mean Maximum % BWL ([2]; docetaxel 7.5 mg/kg IV QW, Day 21)	Mean Maximum BWL ([4]; docetaxel 7.5 mg/kg IV QW, Day 14)	TGI ([5]; docetaxel 7.5 mg/kg IV QW)
C[C@@H](NC(=O)c1ncnc(N)c1Cl)c1ncc(C(=O)Nc2cc(C(F)(F)F)c(Cl)cn2)s1 [Compound A, (R)-2-(1-(6-amino-5-chloropyrimidine-4-carboxamide)ethyl)-N-(5-chloro-4-(trifluoromethyl)pyridin-2-yl)thiazole-5-carboxamide]	55.4	58.9%	62.7	59.4%	0%	−0.1% (Day 7)	active	1% (Days 3	4% (Day 17)	62.9%	active	–	–	–	–	–	–	–	–
CC(=O)O[C@@]12CO[C@@H]1C[C@H](O)[C@@]1(C)C(=O)[C@H](O)C3=C(C)[C@@H](OC(=O)[C@H](O)[C@@H](NC(=O)OC(C)(C)C)c4ccccc4)C[C@@](O)([C@@H](OC(=O)c4ccccc4)[C@H]21)C3(C)C [docetaxel, reference compound]	–	–	–	–	–	–	–	–	–	–	–	9.0	5.2%	18.4	17.7%	0%	2.5% (Day 21)	15% (Day 14)	74.9%
